Measured values taken from article PMC8955854, “The Peptide Hormone CNMa Influences Egg Production in the Mosquito Aedes aegypti” (Insects, 2022).
pEC50: −log10 of the molar value. Positions of bridges follow the written chain, without caps; N, C: chain ends. Residues, ends and D or L forms follow the SMILES beside them.

What was measured:
AeCNMaR-1a (AAEL024199) = AeCNMaR-1a (AAEL024199) (Aedes aegypti, UniProt A0A6I8U3V2); experiment: Receptor activation, aequorin luminescence in CHO-K1 aeq cells expressing AeCNMaR-1a; format: cell-based
Excerpt: The CNMa peptide was synthesized and HPLC purified (>90% purity) by Royobiotechs (Shanghai, China) based on the published sequence of the AeCNMa peptide sequence. Both the amidated (YMSLCHFKLCNMa) and the non-amidated (YMSLCHFKLCNM) were produced with a disulfide bridge between cysteines 5 and 10. The complete coding sequence of the two putative Ae. aegypti CNMa receptors (VectorBase genes AAEL024199 and AAEL018316, which we henceforth refer to as AeCNMaR-1a and AeCNMaR-1b, respectively) were commercially synthesized (Integrated DNA Technologies) and subsequently subcloned into a pcDNA3.1+ mammalian expression vector [24]. A Chinese hamster ovary cell line stably expressing the calcium-dependent bioluminescent protein aequorin (CHO-K1 aeq) was grown in Dulbecco’s modified eagles medium: nutrient F12 (DMEM:F12) media containing 10% heat-inactivated fetal bovine serum (FBS; Wisent, St. Bruno, QC, Canada), 200 μg/mL geneticin, and an antimycotic-antibiotic mixture as described previously. When cells reached 80–90% confluency, they were transfected using Lipofectamine 3000 transfection reagent following manufacturer recommendations (Life Technologies, Burlington, ON, Canada) to transiently express a mammalian construct in pcDNA3.1+ containing either of the two candidate CNMa receptors or mCherry (pcDNA3.1+ mCherry was a gift from Scott Gradia, Addgene plasmid #30125), the latter of which served as a negative control for the receptor functional assay. After 48 h following transfection, CHO-K1 aeq cells were harvested by dislodging from culture flasks using Dulbecco’s PBS containing EDTA and subsequently resuspended in receptor assay media.
Other Ae. aegypti peptides used in this study included “capability” (CAPA)-1 (GPTVGLFAFPRV-NH2), CAPA-2 (pQGLVPFPRV-NH2), AedaeCAPA-pyrokinin (PK) 1 (AGNSGANSGMWFGPRL-NH2), adipokinetic/corazonin-like peptide (ACP; pQVTFSRDWNA-NH2), adipokinetic hormone (AKH) (pQLTFTPSW-NH2), and corazonin (CRZ; pQTFQYSRGWTN-NH2). Serial dilutions of the peptide stocks were prepared in bovine serum albumin (BSA) assay media (DMEM:F12 media + 0.1% BSA + 1× antibiotic-antimycotic) to test concentrations ranging from 10 pM to 50 μM. Single concentrations of the various peptides were loaded into individual wells of white 96-well luminescence plates (Greiner Bio-One, Frickenhausen, Germany) with each peptide concentration tested in quadruplicate. CHO-K1 aeq cells expressing either of the two AeCNMa receptors or mCherry were prepared for the functional assay, as described above, and injected into each well of the 96-well luminescence plates by an automated injector unit integrated with the Synergy 2 Multi-Mode Microplate Reader (BioTek, Winooski, VT, USA). The kinetic luminescent response was measured for 10 s immediately following the application of the cells into the wells containing the different peptide treatments or the negative (i.e., BSA media alone) or positive (i.e., 50 μM ATP) controls as described previously. Data was assembled in Microsoft Excel and then analyzed in GraphPad Prism 7.02 (GraphPad Software, San Diego, CA, USA) where the dose–response curves from multiple biological replicates were used to determine the half maximal effective concentrations (EC50).

AeCNMaR-1b (AAEL018316) = AeCNMaR-1b (AAEL018316) (Aedes aegypti, UniProt A0A1S4G7J8); experiment: Receptor activation, aequorin luminescence in CHO-K1 aeq cells expressing AeCNMaR-1b; format: cell-based
Excerpt: The CNMa peptide was synthesized and HPLC purified (>90% purity) by Royobiotechs (Shanghai, China) based on the published sequence of the AeCNMa peptide sequence. Both the amidated (YMSLCHFKLCNMa) and the non-amidated (YMSLCHFKLCNM) were produced with a disulfide bridge between cysteines 5 and 10. The complete coding sequence of the two putative Ae. aegypti CNMa receptors (VectorBase genes AAEL024199 and AAEL018316, which we henceforth refer to as AeCNMaR-1a and AeCNMaR-1b, respectively) were commercially synthesized (Integrated DNA Technologies) and subsequently subcloned into a pcDNA3.1+ mammalian expression vector [24]. A Chinese hamster ovary cell line stably expressing the calcium-dependent bioluminescent protein aequorin (CHO-K1 aeq) was grown in Dulbecco’s modified eagles medium: nutrient F12 (DMEM:F12) media containing 10% heat-inactivated fetal bovine serum (FBS; Wisent, St. Bruno, QC, Canada), 200 μg/mL geneticin, and an antimycotic-antibiotic mixture as described previously. […]
Other Ae. aegypti peptides used in this study included “capability” (CAPA)-1 (GPTVGLFAFPRV-NH2), CAPA-2 (pQGLVPFPRV-NH2), AedaeCAPA-pyrokinin (PK) 1 (AGNSGANSGMWFGPRL-NH2), adipokinetic/corazonin-like peptide (ACP; pQVTFSRDWNA-NH2), adipokinetic hormone (AKH) (pQLTFTPSW-NH2), and corazonin (CRZ; pQTFQYSRGWTN-NH2). […] Single concentrations of the various peptides were loaded into individual wells of white 96-well luminescence plates (Greiner Bio-One, Frickenhausen, Germany) with each peptide concentration tested in quadruplicate. CHO-K1 aeq cells expressing either of the two AeCNMa receptors or mCherry were prepared for the functional assay, as described above, and injected into each well of the 96-well luminescence plates by an automated injector unit integrated with the Synergy 2 Multi-Mode Microplate Reader (BioTek, Winooski, VT, USA). The kinetic luminescent response was measured for 10 s immediately following the application of the cells into the wells containing the different peptide treatments or the negative (i.e., BSA media alone) or positive (i.e., 50 μM ATP) controls as described previously. Data was assembled in Microsoft Excel and then analyzed in GraphPad Prism 7.02 (GraphPad Software, San Diego, CA, USA) where the dose–response curves from multiple biological replicates were used to determine the half maximal effective concentrations (EC50).

Chain of AeCNMaR-1b (AAEL018316) (A0A1S4G7J8 entry or part of it): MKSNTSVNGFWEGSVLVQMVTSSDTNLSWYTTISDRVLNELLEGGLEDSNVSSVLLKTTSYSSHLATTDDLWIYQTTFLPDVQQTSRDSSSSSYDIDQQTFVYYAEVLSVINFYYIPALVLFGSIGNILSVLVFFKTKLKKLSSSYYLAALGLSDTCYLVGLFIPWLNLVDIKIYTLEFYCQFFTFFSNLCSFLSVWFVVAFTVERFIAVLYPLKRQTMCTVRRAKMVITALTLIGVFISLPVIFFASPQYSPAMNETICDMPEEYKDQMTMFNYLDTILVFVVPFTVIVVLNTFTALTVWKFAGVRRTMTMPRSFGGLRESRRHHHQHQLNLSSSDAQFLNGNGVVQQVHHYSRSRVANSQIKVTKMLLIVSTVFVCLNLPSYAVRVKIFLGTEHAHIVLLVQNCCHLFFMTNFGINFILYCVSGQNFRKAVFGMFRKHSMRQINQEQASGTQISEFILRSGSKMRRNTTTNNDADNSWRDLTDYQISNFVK
Chain of AeCNMaR-1a (AAEL024199) (A0A6I8U3V2 entry or part of it): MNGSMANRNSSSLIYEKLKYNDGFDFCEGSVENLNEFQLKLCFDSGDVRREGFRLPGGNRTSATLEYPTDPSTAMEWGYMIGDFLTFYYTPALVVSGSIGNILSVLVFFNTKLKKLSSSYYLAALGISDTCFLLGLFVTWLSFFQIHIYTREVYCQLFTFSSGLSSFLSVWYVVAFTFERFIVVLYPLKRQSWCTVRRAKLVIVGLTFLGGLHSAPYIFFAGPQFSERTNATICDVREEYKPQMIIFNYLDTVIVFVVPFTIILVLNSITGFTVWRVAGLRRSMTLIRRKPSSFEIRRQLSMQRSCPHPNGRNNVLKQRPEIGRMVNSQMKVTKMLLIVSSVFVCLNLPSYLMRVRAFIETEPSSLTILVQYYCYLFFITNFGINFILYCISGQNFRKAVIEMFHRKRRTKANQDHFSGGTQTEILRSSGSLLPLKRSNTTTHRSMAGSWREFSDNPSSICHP

CSCC[C@H](NC(=O)[C@H](CC(N)=O)NC(=O)[C@@H]1CSSC[C@H](NC(=O)[C@H](CC(C)C)NC(=O)[C@H](CO)NC(=O)[C@H](CCSC)NC(=O)[C@@H](N)Cc2ccc(O)cc2)C(=O)N[C@@H](Cc2c[nH]cn2)C(=O)N[C@@H](Cc2ccccc2)C(=O)N[C@@H](CCCCN)C(=O)N[C@@H](CC(C)C)C(=O)N1)C(=O)O [AeCNM, YMSLCHFKLCNM] (H-YMSLCHFKLCNM-OH; disulfide 5-10)
pEC50 (AeCNMaR-1a (AAEL024199)): 7.33
pEC50 (AeCNMaR-1b (AAEL018316)): 6.90
